In brackets after ≈: the same amount, converted by molar mass. Read-outs that look alike come from different tables or passages of the source.
Assay: Solubility at 37° C. in buffer solutions with different pH (about 10 mg in 1 ml, 2 h and 24 h); filtrate concentration and pH, XRPD of remaining solid
Type: physicochemical
Conditions: for solubility at 2 h / solubility at 24 h: thermodynamic from solid; for solubility at 2 h: read-out: Solubility at 37° C. (mg/ml) 2 h
Experimental: Approximately 10 mg of malate crystal form VII-A and free base Form A were weighed separately, and 1 ml of buffer solutions with different pH were added to make the solution supersaturated, and the mixtures were stirred at 37° C. for 2 h and 24 hours. The samples were filtered, and the filtrates were measured to determine the concentration and pH value, and the remaining solid was subjected to XRPD determination. The specific results were as follows: […]

solubility at 2 h (buffer solution pH 4.5, 37 °C, pH 4.5, aqueous buffer, medium pH 4.5, 2 h): > 10 mg/mL
solubility at 24 h (buffer solution pH 4.5, 37 °C, pH 4.5, aqueous buffer, medium pH 4.5, 24 h, read-out: Solubility at 37° C.): > 10 mg/mL
solubility at 24 h (buffer solution pH 4.5, 37 °C, pH 4.5, aqueous buffer, medium pH 4.5, 24 h, read-out: Solubility at 37° C. (mg/ml) 24 h): > 10 mg/mL
pH (24 h) (filtrate, medium FaSSIF): 5.434
pH (24 h) (filtrate, medium FeSSIF): 4.992
pH (24 h) (filtrate, medium H2O): 4.607
pH (24 h) (filtrate, medium SGF): 1.494
pH (24 h) (filtrate, medium pH 1.2): 1.463
pH (24 h) (filtrate, medium pH 3.0): 3.683
pH (24 h) (filtrate, medium pH 4.5): 4.520
pH (24 h) (filtrate, medium pH 6.8): 6.180
pH (24 h) (filtrate, medium pH 7.4): 6.664
Solubility at 37° C. (mg/ml) 2 h (medium FaSSIF, 2 h): 1.234 mg/mL (≈ 2150 µM)
Solubility at 37° C. (medium FaSSIF, 2 h, listed as API): 1234 µg/mL (≈ 2150 µM)
Solubility at 37° C. (mg/ml) 24 h (medium FaSSIF, 24 h): 0.983 mg/mL (≈ 1710 µM)
Solubility at 37° C. (medium FaSSIF, 24 h, listed as API): 983 µg/mL (≈ 1710 µM)
Crystal form (medium FaSSIF, XRPD of remaining solid, listed as API): Form A
pH (24 h) (medium FaSSIF, filtrate, 37° C., listed as API): 5.434
Solubility at 37° C. (medium FeSSIF, 2 h): >10000 µg/mL
Solubility at 37° C. (mg/ml) 2 h (medium FeSSIF, 2 h): >10 mg/mL
Solubility at 37° C. (medium FeSSIF, 24 h): >10000 µg/mL
Solubility at 37° C. (mg/ml) 24 h (medium FeSSIF, 24 h): >10 mg/mL
pH (24 h) (medium FeSSIF, filtrate, 37° C., listed as API): 4.992
Solubility at 37° C. (mg/ml) 2 h (medium H2O, 2 h): 0.0365 mg/mL (≈ 63.5 µM)
Solubility at 37° C. (medium H2O, 2 h, listed as API): 36.5 µg/mL (≈ 63.5 µM)
Solubility at 37° C. (mg/ml) 24 h (medium H2O, 24 h): 0.0046 mg/mL (≈ 8 µM)
Solubility at 37° C. (medium H2O, 24 h, listed as API): 4.6 µg/mL (≈ 8 µM)
Crystal form (medium H2O, XRPD of remaining solid, listed as API): Form A
pH (24 h) (medium H2O, filtrate, 37° C., listed as API): 4.607
Solubility at 37° C. (medium SGF, 2 h): >10000 µg/mL
Solubility at 37° C. (mg/ml) 2 h (medium SGF, 2 h): >10 mg/mL
Solubility at 37° C. (medium SGF, 24 h): >10000 µg/mL
Solubility at 37° C. (mg/ml) 24 h (medium SGF, 24 h): >10 mg/mL
pH (24 h) (medium SGF, filtrate, 37° C., listed as API): 1.494
pH (24 h) (medium pH 1.2, filtrate, 37° C., listed as API): 1.463
pH (24 h) (medium pH 3.0, filtrate, 37° C., listed as API): 3.683
pH (24 h) (medium pH 4.5, filtrate, 37° C., listed as API): 4.520
Solubility at 37° C. (mg/ml) 2 h (medium pH 6.8, 2 h): 0.294 mg/mL (≈ 512 µM)
Solubility at 37° C. (medium pH 6.8, 2 h, listed as API): 294 µg/mL (≈ 512 µM)
Solubility at 37° C. (mg/ml) 24 h (medium pH 6.8, 24 h): 0.271 mg/mL (≈ 471 µM)
Solubility at 37° C. (medium pH 6.8, 24 h, listed as API): 271 µg/mL (≈ 471 µM)
Crystal form (medium pH 6.8, XRPD of remaining solid, listed as API): Form A
pH (24 h) (medium pH 6.8, filtrate, 37° C., listed as API): 6.180
Solubility at 37° C. (mg/ml) 2 h (medium pH 7.4, 2 h): 0.012 mg/mL (≈ 20.9 µM)
Solubility at 37° C. (medium pH 7.4, 2 h, listed as API): 12 µg/mL (≈ 20.9 µM)
Solubility at 37° C. (mg/ml) 24 h (medium pH 7.4, 24 h): 0.016 mg/mL (≈ 27.8 µM)
Solubility at 37° C. (medium pH 7.4, 24 h, listed as API): 16 µg/mL (≈ 27.8 µM)
Crystal form (medium pH 7.4, XRPD of remaining solid, listed as API): Form A
pH (24 h) (medium pH 7.4, filtrate, 37° C., listed as API): 6.664
solubility at 2 h (pH 1.2 buffer solution, 37 °C, pH 1.2, simulated gastric fluid, medium pH 1.2, 2 h): > 10 mg/mL
solubility at 24 h (pH 1.2 buffer solution, 37 °C, pH 1.2, simulated gastric fluid, medium pH 1.2, 24 h, read-out: Solubility at 37° C. (mg/ml) 24 h): > 10 mg/mL
solubility at 2 h (pH 3.0 buffer solution, 37 °C, pH 3, aqueous buffer, medium pH 3.0, 2 h): > 10 mg/mL
solubility at 24 h (pH 3.0 buffer solution, 37 °C, pH 3, aqueous buffer, medium pH 3.0, 24 h, read-out: Solubility at 37° C. (mg/ml) 24 h): > 10 mg/mL
Crystal form (remaining solid, medium FaSSIF, XRPD): Free base
Crystal form (remaining solid, medium H2O, XRPD): Free base
Crystal form (remaining solid, medium pH 6.8, XRPD): Free base
Crystal form (remaining solid, medium pH 7.4, XRPD): Free base
Compound: CCc1nc2c(N)ncc(-c3ccc(N4CCC(N5CCN(CC)CC5)CC4)c(OC)c3)c2nc1NC1CCOCC1 [Free base Form A, 3-ethyl-8-(4-(4-(4-ethylpiperazin-1-yl)piperidin-1-yl)-3-methoxyphenyl)-N2-(tetrahydro-2H-pyran-4-yl) pyridino [3,4-b]pyrazine-2,5-diamine]

Source: patent US20250101017A1, “SALT CRYSTAL FORM AND FREE BASE CRYSTAL FORM OF KINASE INHIBITOR” (CYTOSINLAB THERAPEUTICS CO., LTD., priority 2022, published 2025)
